Reference: patent publication US10858360B2, “Tricyclic gyrase inhibitors” (priority 2011, dated 2020)
In brackets after ≈: the same amount, converted by molar mass. Like-named read-outs stand apart in the source and are kept apart here.

Columns and labels:
[1] = test system: S. aureus ATCC 13709; assay: MIC, S. aureus ATCC 13709 (Alamar Blue broth microdilution); format: cell-based; conditions: for MIC: Staphylococcus aureus, ATCC13709, S. aureus
[2] = test system: E. coli ATCC 25922; assay: MIC, E. coli ATCC 25922; format: cell-based; conditions: for MIC: Escherichia coli, ATCC25922, E. coli
[3] = Alamar Blue read after overnight incubation at 35° C.
[4] = S. aureus, Alamar Blue read after overnight incubation at 35° C.
[5] = E. coli, Alamar Blue read after overnight incubation at 35° C.

Row | Compound | MIC [1, 3] | MIC [2, 3] | also measured
1 | CNc1cc(F)cc2c1[nH]c1nc(Oc3cncnc3)nc(N3C[C@H](N)C4(CC4)C3)c12 [4.011] | ≤ 0.5 µg/mL | ≤ 0.5 µg/mL | –
2 | CNc1cccc2c1[nH]c1nc(Oc3cncnc3)nc(N3C/C(=N\OC)[C@@H](N)C3)c12 [3.62] | ≤ 0.5 µg/mL | 8 µg/mL (≈ 19.1 µM) | –
3 | CNc1cc(Cl)cc2c1[nH]c1nc(Oc3cncnc3)nc(N3CCC4(CC4N)C3)c12 (centres unmarked) [6.11] | – | – | MIC Sa [1]: ≤0.5 µg/mL; MIC Ec [2]: ≤0.5 µg/mL
4 | CNc1cccc2c1[nH]c1nc(Sc3cnc4ccc[n+]([O-])c4c3)nc(N3C[C@@H]4[C@H](C3)[C@@]4(N)C(N)=O)c12 [1.19] | > 64 µg/mL | > 64 µg/mL | –
5 | CNc1cc(F)cc2c1[nH]c1nc(Oc3cnc(N4CCC4)nc3)nc(N3C[C@H](N)C4(CC4)C3)c12 [4.297] | ≤ 0.5 µg/mL | ≤ 0.5 µg/mL | –
6 | CNc1cccc2c1[nH]c1nc(Oc3cncnc3)nc(N3CCC4(CNC4)C3)c12 [3.65] | 8 µg/mL (≈ 19.9 µM) | 64 µg/mL (≈ 159 µM) | –
7 | CNc1cc(F)cc2c1[nH]c1nc(Oc3cncnc3)nc(N3CCC4(CCNC4)C3)c12 (centres unmarked) [4.033] | ≤ 0.5 µg/mL | 4 µg/mL (≈ 9.21 µM) | –
8 | CNc1cc(F)cc2c1[nH]c1nc(Oc3cncc(F)c3)nc(N3CC(N)C4(CC4)C3)c12 (centres unmarked) [4.056] | ≤ 0.5 µg/mL | ≤ 0.5 µg/mL | –
9 | CNc1cc(F)cc2c1[nH]c1nc(Oc3cncnc3)nc(N3CC4CCC(N)C3C4)c12 (centres unmarked) [4.032] | ≤ 0.5 µg/mL | 2 µg/mL (≈ 4.6 µM) | –
10 | CNc1ccc(F)c2c1[nH]c1nc(Oc3cnc(N)nc3)nc(C3CC4C(N)C4C3)c12 (centres unmarked) [6.25] | ≤ 0.5 µg/mL | ≤ 0.5 µg/mL | –
11 | CNc1cc(F)cc2c1[nH]c1nc(Oc3cnc(C)nc3)nc(N3CC4(CCC4N)C3)c12 (centres unmarked) [4.100] | – | – | MIC Sa [1, 4]: ≤0.5 µg/mL; MIC Ec [2, 5]: ≤0.5 µg/mL
12 | CNc1cc(F)cc2c1[nH]c1nc(Oc3cnc(C#N)c(C)c3)nc(N3C[C@H](N)C4(CC4)C3)c12 [4.324] | – | – | MIC Sa [1, 4]: ≤0.5 µg/mL; MIC Ec [2, 5]: ≤0.5 µg/mL
13 | CNc1cc(F)cc2c1[nH]c1nc(Oc3cnc(C(C)C)nc3)nc(N3C[C@H](N)C4(CC4)C3)c12 [4.233] | ≤ 0.5 µg/mL | 1 µg/mL (≈ 2.16 µM) | –
14 | CNc1cccc2c1[nH]c1nc(Oc3cncc(C#N)c3)nc(N3CCC(CN)C3)c12 (centres unmarked) [3.57] | 1 µg/mL (≈ 2.41 µM) | 8 µg/mL (≈ 19.3 µM) | –
15 | CNc1ncnc2c1[nH]c1nc(Oc3cnc(C)nc3)nc(N3CC(N)C4(CC4)C3)c12 (centres unmarked) [7.08] | 16 µg/mL (≈ 38.2 µM) | > 64 µg/mL | –
16 | CNc1cccc2c1[nH]c1nc(Sc3cnc4ccc[n+]([O-])c4c3)nc(N3CC4C(N)C4C3)c12 (centres unmarked) [1.13] | – | ≤ 0.5 µg/mL | MIC Sa [1, 4]: ≤0.5 µg/mL

Row | Compound | MIC [1, 3] | MIC [2, 3] | also measured
17 | CNc1cc(F)cc2c1[nH]c1nc(Oc3cnc(C4CCC4)nc3)nc(N3CC4CC(N)C4C3)c12 (centres unmarked) [4.285] | ≤ 0.5 µg/mL | ≤ 0.5 µg/mL | –
18 | CNc1cc(F)cc2c1[nH]c1nc(Oc3cnc(N)nc3)nc(N3CC4CNC4C3)c12 (centres unmarked) [4.178] | ≤ 0.5 µg/mL | 8 µg/mL (≈ 19 µM) | –
19 | CNc1cc(F)cc2c1[nH]c1nc(Oc3cnc4ccoc4c3)nc(N3CC(N)C4(CC4)C3)c12 (centres unmarked) [4.292] | – | – | MIC Sa [1, 4]: ≤0.5 µg/mL; MIC Ec [2, 5]: ≤0.5 µg/mL
20 | CNc1cc(F)cc2c1[nH]c1nc(Oc3cnc(N4CCCC4=O)nc3)nc(N3CC4C(N)C4C3)c12 (centres unmarked) [4.345] | ≤ 0.5 µg/mL | 2 µg/mL (≈ 4.09 µM) | –
21 | CNc1cccc2c1[nH]c1nc(Oc3cnc(C)nc3)nc(N3CC[C@@H](NCCC#N)C3)c12 [3.10] | 32 µg/mL (≈ 72.2 µM) | > 64 µg/mL | –
22 | CCOC1CN(c2nc(Oc3cnc(C)nc3)nc3[nH]c4c(NC)cc(F)cc4c23)CC1N (mixture of isomers) [4.147] | – | – | MIC Sa [1, 4]: ≤0.5 µg/mL; MIC Ec [2, 5]: 1 µg/mL
23 | CNc1cc(F)cc2c1[nH]c1nc(Oc3cnc(C)nc3)nc(N3CC4CCC(N)C4C3)c12 (centres unmarked) [4.102] | – | – | MIC Sa [1, 4]: ≤0.5 µg/mL; MIC Ec [2, 5]: 2 µg/mL (≈ 4.46 µM)
24 | CNc1cc(F)cc2c1[nH]c1nc(Oc3cnc4c(c3)ncn4C3CC3)nc(N3CC(N)C3)c12 [4.364] | – | – | MIC Sa [1, 4]: ≤0.5 µg/mL; MIC Ec [2, 5]: 4 µg/mL (≈ 8.71 µM)
25 | CNc1ncnc2c1[nH]c1nc(-c3cncnc3)nc(N3CC4C(N)C4C3)c12 (centres unmarked) [7.11] | > 64 µg/mL | > 64 µg/mL | –
26 | NC1C2CN(c3nc(Sc4cnc5ccc[n+]([O-])c5c4)nc4[nH]c5c(Cl)cccc5c34)CC12 (centres unmarked) [1.3] | 32 µg/mL (≈ 67.2 µM) | > 64 µg/mL | –
27 | CNc1cc(F)cc2c1[nH]c1nc(Oc3cnc4ccc[n+]([O-])c4c3)nc(N3CC4(CCC4N)C3)c12 (centres unmarked) [4.342] | – | – | MIC Sa [1, 4]: ≤0.5 µg/mL; MIC Ec [2, 5]: 4 µg/mL (≈ 8.22 µM)
28 | CNc1cc(F)cc2c1[nH]c1nc(Oc3cnc(C)nc3)nc(NCCCN)c12 [4.108] | – | – | MIC Sa [1, 4]: 4 µg/mL (≈ 10.1 µM); MIC Ec [2, 5]: >16 µg/mL
29 | CNc1cc(F)cc2c1[nH]c1nc(Oc3cnc(C)nc3)nc(N3CC[C@@H](N)C3)c12 [4.070] | ≤ 0.5 µg/mL | 1 µg/mL (≈ 2.45 µM) | –
30 | CNc1cc(Cl)cc2c1[nH]c1nc(Oc3cnc(N)nc3)nc(N3CC4C(N)C4C3)c12 (centres unmarked) [6.17] | – | – | MIC Sa [1]: ≤0.5 µg/mL; MIC Ec [2]: ≤0.5 µg/mL
31 | CNc1cc(F)cc2c1[nH]c1nc(Oc3cnc(N)nc3)nc(N3CCC(CN)C3)c12 (centres unmarked) [4.176] | ≤ 0.5 µg/mL | 1 µg/mL (≈ 2.36 µM) | –
